What all share (assay): Saccharide competition of SP-D binding to BSA-mannan coated plates
For one test, the target named is T1, pSP-D (Sus scrofa, UniProt Q9N1X4).
T1 sequence (Q9N1X4 21-378): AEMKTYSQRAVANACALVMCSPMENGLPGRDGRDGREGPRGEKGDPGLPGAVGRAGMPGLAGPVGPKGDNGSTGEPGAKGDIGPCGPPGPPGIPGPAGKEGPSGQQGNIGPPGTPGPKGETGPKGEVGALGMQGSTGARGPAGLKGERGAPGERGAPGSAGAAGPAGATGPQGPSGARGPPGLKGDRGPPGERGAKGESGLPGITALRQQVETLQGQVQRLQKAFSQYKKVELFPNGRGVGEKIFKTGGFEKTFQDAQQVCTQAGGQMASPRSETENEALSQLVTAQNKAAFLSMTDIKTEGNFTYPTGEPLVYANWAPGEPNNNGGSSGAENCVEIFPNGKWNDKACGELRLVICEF
More on the design: species or system porcine.

The next test has as its target T2, hSP-D (Homo sapiens, UniProt P35247).
T2 construct: The full-length recombinant collectins pSP-D and hSP-D were constructed as published; made in house; host or cells: HEK293 (HEK293E, transient transfection)
T2 sequence (P35247 21-375): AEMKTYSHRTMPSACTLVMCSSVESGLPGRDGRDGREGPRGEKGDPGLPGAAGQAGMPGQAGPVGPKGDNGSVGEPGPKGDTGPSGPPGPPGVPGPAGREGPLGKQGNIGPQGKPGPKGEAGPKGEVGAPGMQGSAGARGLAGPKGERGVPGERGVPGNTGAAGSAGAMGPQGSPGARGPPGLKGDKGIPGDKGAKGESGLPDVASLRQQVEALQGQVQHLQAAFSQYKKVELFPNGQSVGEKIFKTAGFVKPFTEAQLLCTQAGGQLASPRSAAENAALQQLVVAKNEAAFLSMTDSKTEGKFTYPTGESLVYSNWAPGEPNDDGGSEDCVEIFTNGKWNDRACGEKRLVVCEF

The target of the next test is T3, iSP-D (Homo sapiens, UniProt P35247, D344N/D350N/E309K/INS346GSS/K307Q/V271E).
T3 construct: Full-length recombinant iSP-D was generated based upon the full-length hSP-D cDNA clone; made in house; host or cells: HEK293 (HEK293E, transient transfection)
T3 sequence (P35247 with tags, fused parts or gaps V271E/K307Q/E309K/D344N/INS346GSS/D350N): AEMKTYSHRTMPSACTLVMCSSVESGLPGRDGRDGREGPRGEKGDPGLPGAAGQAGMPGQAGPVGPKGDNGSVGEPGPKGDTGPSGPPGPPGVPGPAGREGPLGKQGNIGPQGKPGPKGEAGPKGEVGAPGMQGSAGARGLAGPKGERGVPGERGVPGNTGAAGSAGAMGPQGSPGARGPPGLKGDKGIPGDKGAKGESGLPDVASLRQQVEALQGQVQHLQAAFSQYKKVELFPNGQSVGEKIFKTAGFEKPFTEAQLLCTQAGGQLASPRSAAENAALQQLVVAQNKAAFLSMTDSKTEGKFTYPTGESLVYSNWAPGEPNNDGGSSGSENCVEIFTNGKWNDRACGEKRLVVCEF

pIC50: −log10 of the molar value.

`O=C[C@H](O)[C@@H](O)[C@@H](O)[C@H](O)CO` [D-Galactose, D-galactose]: the pIC50 is 2.19 at pSP-D, 1.87 at hSP-D and 1.87 at iSP-D.

In the case of `OC[C@H]1OC(O)[C@H](O)[C@@H](O)[C@@H]1O` (stereo partly drawn) [D-Glucose, D-glucose], the values for the pIC50 on pSP-D, at hSP-D and on iSP-D were 2.55, 2.34 and 2.11, respectively.

Consider `O=C(CO)[C@@H](O)[C@H](O)[C@H](O)CO` [Fructose, fructose], for which the negative logarithm of the IC50 (pIC50) at pSP-D was 2.55; at hSP-D, 2.51; on iSP-D it was 2.32.

On to `CC(=O)N[C@@H]1C(O)O[C@H](CO)[C@@H](O)[C@@H]1O` (stereo partly shown) [ManNAc, N-acetylmannosamine], for which the pIC50 at pSP-D is 2.10; on hSP-D, 2.66; on iSP-D, 2.51.

On to `O[C@H]1[C@H](O)[C@@H](O)[C@H](O)[C@@H](O)[C@H]1O` [Myo-Inositol, myo-inositol], for which, at iSP-D (ratio of IC50 for inhibition of binding to BSA-mannan), the “IC50-value with iSP-D as compared to hSP-D” value is “three times higher”.

Values taken from paper PMC6842947, “Enhanced Antiviral Activity of Human Surfactant Protein D by Site-Specific Engineering of the Carbohydrate Recognition Domain” (Frontiers in Immunology, 2019).
